{"source": "patent US20240304840A1", "about": "(priority 2023, published 2024)", "conditions": "1 mAh H-cell, 1 M sodium chloride, Selemion AMVN, about 20 days", "from_the_text": "An H-cell can be used for the coulombic efficiency tests. […] The electrolyte can be dissolved in about 1 M sodium chloride for electrochemical stability testing. The moles of anolyte and catholyte molecules present can be controlled to achieve the desired capacity of 1 mAh. […] Selemion™ anion exchange membrane (AMVN) can be used for the H-cells.", "data": [{"smiles": "C[N+](C)(C)CCC[N+](C)(C)CCCN1C(=O)c2ccc3c4ccc5c6c(ccc(c7ccc(c2c37)C1=O)c64)C(=O)N(CCC[N+](C)(C)CCC[N+](C)(C)C)C5=O", "note": "[PDI-tetraammonium-Cl4]", "values": [{"measurement": "crossover in H-cell", "result": "almost no crossover"}]}]}
